This note sets out measurements from US20210395248A1, “INHIBITORS OF HUMAN IMMUNODEFICIENCY VIRUS REPLICATION” (ViiV HEALTHCARE UK (NO.5) LIMITED, priority 2018, published 2021).

SMILES strings stand for the structures. pEC50: −log10 of the molar value. Like-named read-outs stand apart in the source and are kept apart here.

The subject of data set [1] is recombinant NL4-3 virus (Renilla luciferase reporter) in MT-2 cells. Nature of the data set: HIV cell culture assay (antiviral activity, luciferase readout in infected MT-2 cells). The conditions noted are these: NL43. Format: cell-based.
A short description of data set [2]: Compound cytotoxicity, XTT-based colorimetric assay. The data set is classed as cell-based. The conditions noted are these: human. As for the experimental part: Compound cytotoxicity and the corresponding CC50 values were determined using the same protocol as described in the antiviral assay except that uninfected cells were used. Cytotoxicity was assessed on day 4 in uninfected MT2 cells by using a XTT (2,3-bis [2-Methoxy-4-nitro-5-sulfophenyl]-2H-tetrazolium-5-carboxyanilide inner salt)-based colorimetric assay (Sigma-Aldrich, St Louis, Mo.).
A general note: Formazan colour is commonly taken as a measure of viable cells.

Setting [3] is: uninfected MT2 cells, day 4, XTT, read-out: CC50.

Broadly, the pEC50 is −log10 of the EC50, conventionally taken in molar units. By CC50 is commonly meant the concentration giving 50% cytotoxicity. For the compound `C[C@@H]1CN(c2ccc3c(=O)n(-c4ccc(Cl)c5c(NS(C)(=O)=O)nn(CC(F)(F)F)c45)c([C@H](Cc4cc(F)cc(F)c4)NC(=O)Cn4nc(C(F)(F)F)c5c4C(F)(F)[C@@H]4C[C@H]54)nc3n2)C[C@H](C)O1` (atropisomer, axis not shown; (aR)) [Example 8, N—((S)-1-(3-(4-chloro-3-(methylsulfonamido)-1-(2,2,2-trifluoroethyl)-1H-indazol-7-yl)-7-((2S,6R)-2,6-dimethylmorpholino)-4-oxo-3,4-dihydropyrido[2,3-d]pyrimidin-2-yl)-2-(3,5-difluorophenyl)ethyl)-2-((3bS,4aR)-5,5-difluoro-3-(trifluoromethyl)-3b,4,4a,5-tetrahydro-1H-cyclopropa[3,4]cyclopenta[1,2-c]pyrazol-1-yl)acetamide], in data set [1], the pEC50 is 10.49. Besides, the CC50 at 4 days in data set [2] (setting [3]) is more than 500 nM.

Regarding `CC(F)CCNc1ccc2c(=O)n(-c3ccc(Cl)c4c(NS(C)(=O)=O)nn(C)c34)c([C@H](Cc3cc(F)cc(F)c3)NC(=O)Cn3nc(C(F)F)c4c3C(F)(F)[C@@H]3C[C@H]43)nc2n1` (stereo partly drawn) [Example 9, N-((1S)-1-((3P)-3-(4-chloro-1-methyl-3-(methylsulfonamido)-1H-indazol-7-yl)-7-((3-fluorobutyl)amino)-4-oxo-3,4-dihydropyrido[2,3-d]pyrimidin-2-yl)-2-(3,5-difluorophenyl)ethyl)-2-((3bS,4aR)-3-(difluoromethyl)-5,5-difluoro-3b,4,4a,5-tetrahydro-1H-cyclopropa[3,4]cyclopenta[1,2-c]pyrazol-1-yl)acetamide], the pEC50 in data set [1] was 10.34. Further, the CC50 at 4 days in data set [2] (setting [3]) is more than 100 nM.

In the case of `CCN(CCC(F)(F)F)c1ccc2c(=O)n(-c3ccc(Cl)c4c(NS(C)(=O)=O)nn(C)c34)c([C@H](Cc3cc(F)cc(F)c3)NC(=O)Cn3nc(C(F)F)c4c3C(F)(F)[C@@H]3C[C@H]43)nc2n1` [Example 10, N—((S)-1-((3P)-3-(4-chloro-1-methyl-3-(methylsulfonamido)-1H-indazol-7-yl)-7-(ethyl(3,3,3-trifluoropropyl)amino)-4-oxo-3,4-dihydropyrido[2,3-d]pyrimidin-2-yl)-2-(3,5-difluorophenyl)ethyl)-2-((3bS,4aR)-3-(difluoromethyl)-5,5-difluoro-3b,4,4a,5-tetrahydro-1H-cyclopropa[3,4]cyclopenta[1,2-c]pyrazol-1-yl)acetamide], in data set [1], the pEC50 was 10.43. In addition, in data set [2] (setting [3]), the CC50 at 4 days is more than 100 nM.

In the case of `Cn1nc(NS(C)(=O)=O)c2c(Cl)ccc(-n3c([C@H](Cc4cc(F)cc(F)c4)NC(=O)Cn4nc(C(F)F)c5c4C(F)(F)[C@@H]4C[C@H]54)nc4nc(N5C6CCC5COC6)ccc4c3=O)c21` [Example 20, N-((1S)-1-(7-(3-oxa-8-azabicyclo[3.2.1]octan-8-yl)-(3P)-3-(4-chloro-1-methyl-3-(methylsulfonamido)-1H-indazol-7-yl)-4-oxo-3,4-dihydropyrido[2,3-d]pyrimidin-2-yl)-2-(3,5-difluorophenyl)ethyl)-2-((3bS,4aR)-3-(difluoromethyl)-5,5-difluoro-3b,4,4a,5-tetrahydro-1H-cyclopropa[3,4]cyclopenta[1,2-c]pyrazol-1-yl)acetamide], the pEC50 in data set [1] was 10.30. In addition, the CC50 at 4 days in data set [2] was more than 100 nM.

Take `Cn1nc(NS(C)(=O)=O)c2c(Cl)ccc(-n3c([C@H](Cc4cc(F)cc(F)c4)NC(=O)Cn4nc(C(F)F)c5c4C(F)(F)[C@@H]4C[C@H]54)nc4nc(N5CC6CCC(C5)O6)ccc4c3=O)c21` [Example 21, N-((1S)-1-(7-(8-oxa-3-azabicyclo[3.2.1]octan-3-yl)-(3P)-3-(4-chloro-1-methyl-3-(methylsulfonamido)-1H-indazol-7-yl)-4-oxo-3,4-dihydropyrido[2,3-d]pyrimidin-2-yl)-2-(3,5-difluorophenyl)ethyl)-2-((3bS,4aR)-3-(difluoromethyl)-5,5-difluoro-3b,4,4a,5-tetrahydro-1H-cyclopropa[3,4]cyclopenta[1,2-c]pyrazol-1-yl)acetamide]: the negative-log EC50 (pEC50) in data set [1] was 10.24. Further, the CC50 at 4 days in data set [2] (setting [3]) is more than 100 nM.
